Measured values published in patent US8969332B2, “Aryloxy dihalopropenyl ether compounds and uses thereof” (Sinochem Corporation, priority 2011, dated 2015).

Assays:
beet armyworm [1] = experiment: Field trial against beet armyworm on cabbage; format: in vivo, Laphygma exigua
Procedure: The trial was carried out in rain shelter area of experimental field of Wuhan vegetable research institute, the test crop is cabbage (variety: Jingfeng NO. 1). The dosage of the invention compound 1 (Example 11, 10% EC, same as below) are 75, 105, 150 g a.i./hm^2. and the comparative agent pyridalyl (10% EC, commercially available, same as below) is 105 g a.i./hm^2. The agent was applied on 9 Oct. 2011. The application tool is Linong 16HD-400 type backpack spray. Evenly spraying to whole cabbage which is in rosette stage was conducted. Beet armyworm is mainly larvae. The plot area is 25 m^2 and 4 replicates and randomized block arrangement were set. The amount of spray liquid is 750 L/hm^2. It was sunny and there was no wind, with the highest temperature of 28° C. and the lowest of 15° C. on the day of the application. Chosen 10 plants from each plot and scored the larvae at different instars at fixing time. The base number was investigated before treatment. The number of living larvae was counted after 1 day, 3 days, 7 days and 14 days respectively after application and control efficacy was calculated.
(§1) Calculation Method: Decrease rate of insects (%)=(the number of insects before application−the number of insects after application) the number of insects before application×100 Control efficacy (%)=(decrease rate of insects in treated area decrease rate of insects in blank comparative area)/(100−decrease rate of insects in blank comparative area)×100

armyworm = experiment: Insecticidal activity against armyworm in greenhouse (airbrush spraying of corn leaf discs); format: in vivo; details: Mythimna separata, foliar, 72 h, parallel determination
Procedure: (§2) Compounds were dissolved in mixed solvent (acetone:methanol=1:1), and diluted to required concentration with water containing 0.1% of tweed 80.
(§3) The method of spraying by airbrush: The corn leaves were made into plates of 2 cm diameter by use of punch. A test solution (0.5 ml) was sprayed by airbrush at the pressure of 0.7 kg/cm^2 to both sides of every plate. 10 Second instar larvae were put into the Petri-dishes after the leaf disc air-dried and 3 replicates were set thr each treatment. Then the insects were maintained in observation room (25° C., 60˜70% R.H.). Scores were conducted and mortalities were calculated after 72 h.

diamond back moth [2] = experiment: Insecticidal activity against diamond back moth in greenhouse (airbrush spraying of cabbage leaf discs); format: in vivo; details: Plutella xylostella, foliar, 72 h, parallel determination, read-out: Mortality of diamond back moth (%)
Procedure: as §2
as §3, with “cabbage” for “corn”, “petri-dishes” for “Petri-dishes”, “for” for “thr”, “R.H.),” for “R.H.).”

diamond back moth [3] = experiment: Field trial against diamond back moth on cabbage; format: in vivo, Plutella xylostella
Procedure: as §1
The trial was carried out in the test filed of Shenyang Research Institute of Chemical industry Ltd. The trial crop is cabbage (Variety: Zhonggan NO 8.). The dosage of the compound 1 are 75, 105, 150 g a.i./hm^2 and comparative agent pyridalyl is 105 g a.i./hm^2. The agent was applied once on 13 Jun. 2011. The application tool is Shandongweishi WS-16P type backpack manual sprayer. Evenly spraying to whole cabbage which is in rosette stage was conducted. Diamond back moth is originated at the peak time. The plot area is 10 m^2, 3 replicates and randomized block arrangement were set. The amount of spray liquid is 750 L/hm^2. It was sunny with the highest temperature of 29° C., and the lowest of 17° C. on the day of the application of the spray. The methods of investigation and calculation are the same as Example 13.

[4] = test system: cabbage butterfly (Pierisrapae Linne); experiment: Field trial against cabbage butterfly; format: in vivo
Procedure: as §1
The trial was carried out in a farmer's vegetable field in Xiangcheng District Suzhou City. The variety of the cabbage is Xinxia 50. The dosage of the compound 1 are 75, 105, 150 g a.i./hm^2 and the comparative agent pyridalyl is 105 g a.i./hm^2. The agent was applied on 26 May 2011. The application tool is Singaporean Linong HD-400 type backpack spray. Evenly spraying to whole cabbage which is at vegetative growth phase was conducted, Cabbage butterfly is at a peak time of 1-3 instars of larvae. The plot area is 15 m^2, 4 replicates and randomized block arrangement were set. The amount of spray liquid is 750 L/hm^2. It was from sunny to cloudy with the highest temperature of 22.6° C., and the lowest of 17.8° C. on the day of the application of the spray. Chosen 10 plants from each plot and scored the larvae at different instars at fixing time. The base number was investigated before treatment. The number of living larvae was counted after 1 day, 4 days, 7 days and 12 days respectively after application and control efficacy was calculated.
Calculation method: the same as Example 13.

beet armyworm [5] = experiment: Insecticidal activity against beet armyworm (24 well-plate artificial diet emulsion method); format: in vivo; details: Spodoptera exigua, 72 h, read-out: Mortality of beet armyworm (%)
Procedure: as §2
24 well-plate artificial diet emulsion method: artificial food was added to each well of the 24 well-plate, after the artificial food was cooled, the prepared solution were added into the 24 well-plate according to the experimental design by order of chemical concentrations from low to high, by gently shaking the even emulsion film can be formed on the surface of the diet. 24 neat and healthy larvae were put into the 24 well-plate (one larvae each well) after the film was air-dried and 3 replicates were set for each treatment. Then the insects were maintained in observation room (25° C., 60˜70% R.H.). Scores were conducted and mortalities were calculated after 72 h.

[6] = 75 g a.i./hm^2, 10% EC, 1 day after treatment
[7] = 75 g a.i./hm^2, 10% EC, 3 days after treatment
[8] = 75 g a.i./hm^2, 10% EC, 7 days after treatment
[9] = 105 g a.i./hm^2, 10% EC, 1 day after treatment
[10] = 105 g a.i./hm^2, 10% EC, 3 days after treatment
[11] = 105 g a.i./hm^2, 10% EC, 7 days after treatment
[12] = 150 g a.i./hm^2, 10% EC, 1 day after treatment
[13] = 150 g a.i./hm^2, 10% EC, 3 days after treatment
[14] = 150 g a.i./hm^2, 10% EC, 7 days after treatment

FC(F)(F)c1ccc(Oc2ccc(OCCCOc3c(Cl)cc(OCC=C(Cl)Cl)cc3Cl)cc2)nc1 [Compound 1]
Control efficiency (%) (beet armyworm [1]; [6]): 63.18%
Control efficiency (%) (beet armyworm [1]; [7]): 86.14%
Control efficiency (%) (beet armyworm [1]; [8]): 80.51%
Control efficiency (%) (beet armyworm [1]; 75 g a.i./hm^2, 10% EC, 14 days after treatment): 73.51%
Control efficiency (%) (beet armyworm [1]; [9]): 69.20%
Control efficiency (%) (beet armyworm [1]; [10]): 92.30%
Control efficiency (%) (beet armyworm [1]; [11]): 86.19%
Control efficiency (%) (beet armyworm [1]; 105 g a.i./hm^2, 10% EC, 14 days after treatment): 83.69%
Control efficiency (%) (beet armyworm [1]; [12]): 71.17%
Control efficiency (%) (beet armyworm [1]; [13]): 94.09%
Control efficiency (%) (beet armyworm [1]; [14]): 90.45%
Control efficiency (%) (beet armyworm [1]; 150 g a.i./hm^2, 10% EC, 14 days after treatment): 88.42%
mortality at 10 µg/mL (armyworm; 10 mg/L): 100%
mortality at 100 µg/mL (armyworm; 100 mg/L): 100%
mortality at 6.25 µg/mL (diamond back moth [2]; 6.25 mg/L): 100%
mortality at 25 µg/mL (diamond back moth [2]; 25 mg/L): 100%
mortality at 50 µg/mL (diamond back moth [2]; 50 mg/L): 100%
Control efficacy (%) (diamond back moth [3]; [6]): 86.0%
Control efficacy (%) (diamond back moth [3]; [7]): 98.7%
Control efficacy (%) (diamond back moth [3]; [8]): 97.6%
Control efficacy (%) (diamond back moth [3]; [9]): 93.4%
Control efficacy (%) (diamond back moth [3]; [10]): 97.0%
Control efficacy (%) (diamond back moth [3]; [11]): 97.8%
Control efficacy (%) (diamond back moth [3]; [12]): 90.4%
Control efficacy (%) (diamond back moth [3]; [13]): 97.9%
Control efficacy (%) (diamond back moth [3]; [14]): 97.9%
Control efficiency (%) [4, 6]: 40.4%
Control efficiency (%) ([4]; 75 g a.i./hm^2, 10% EC, 4 day after treatment): 84.1%
Control efficiency (%) ([4]; 75 g a.i./hm^2, 10% EC, 7 day after treatment): 86.7%
Control efficiency (%) ([4]; 75 g a.i./hm^2, 10% EC, 12 days after treatment): 81.2%
Control efficiency (%) [4, 9]: 44.0%
Control efficiency (%) ([4]; 105 g a.i./hm^2, 10% EC, 4 day after treatment): 87.9%
Control efficiency (%) ([4]; 105 g a.i./hm^2, 10% EC, 7 day after treatment): 92.6%
Control efficiency (%) ([4]; 105 g a.i./hm^2, 10% EC, 12 days after treatment): 85.0%
Control efficiency (%) [4, 12]: 45.2%
Control efficiency (%) ([4]; 150 g a.i./hm^2, 10% EC, 4 day after treatment): 89.6%
Control efficiency (%) ([4]; 150 g a.i./hm^2, 10% EC, 7 day after treatment): 92.8%
Control efficiency (%) ([4]; 150 g a.i./hm^2, 10% EC, 12 days after treatment): 85.4%
mortality at 2.5 µg/mL (beet armyworm [5]; 2.5 mg/L): 47.8%
mortality at 10 µg/mL (beet armyworm [5]; 10 mg/L): 100%
